In patent publication US8247211B2, “Glycopeptide antibiotics” (American Cyanamid Company, priority 2001, dated 2012):

Experiments:
Staphylococcus sp. = assay: In vitro antibacterial evaluation: minimum inhibitory concentration (MIC), broth dilution method; assay type: cell-based
In short: (§1)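 MIC by broth dilution in Mueller-Hinton II medium following NCCLS M7-A2. Inoculum was 5×10^5 CFU/mL and antibiotic was tested over 64-0.06 μg/mL. Gram-positive panel included clinical isolates resistant to methicillin, penicillin and/or vancomycin.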

Streptococcus sp. = assay: as above; assay type: cell-based
In short: as §1

Escherichia coli = assay: as above; assay type: cell-based; details: for MIC Escherichia coli (ATCC 25922): strain ATCC 25922; for MIC Escherichia coli (GC 4559): strain GC 4559; for MIC Escherichi coli (GC 4560): strain GC 4560
In short: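 Using Muller-Hinton II […] and an inoculum of 5×10^5 CFU/mL, antibiotic dilutions from 64 down to 0.06 μg/mL were tested following NCCLS M7-A2. The MIC is the lowest concentration inhibiting growth, including in methicillin-, penicillin- or vancomycin-resistant clinical isolates.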

Enterococcus sp. = assay: as above; assay type: cell-based
In short: as §1

[1] = test system: Staphylococcus aureus-SMITH (GC 4543); assay: Acute lethal infection in mice (ED50); assay type: in vivo; details: female CD-1 mice, intraperitoneal challenge, intravenous dose 30 min. after infection, 7 day survival ratios
In short: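 Groups of five female CD-1 mice per dose got intravenous antibiotic in saline or 5% dextrose half an hour after intraperitoneal infection sufficient to kill controls within 24-48 hr. Seven-day survival data from three experiments were combined to derive ED50.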

[2] = broth dilution, 5×10^5 CFU/mL, 18 hours at 35° C.
[3] = strain ATCC 29213, broth dilution, 18 hours at 35° C.
[4] = strain GC 1131, broth dilution, 18 hours at 35° C.
[5] = strain GC 3051, broth dilution, 18 hours at 35° C.
[6] = strain GC 3053, broth dilution, 18 hours at 35° C.
[7] = strain GC 4541, broth dilution, 18 hours at 35° C.
[8] = strain GC 4542, broth dilution, 18 hours at 35° C.
[9] = strain GC 4544, broth dilution, 18 hours at 35° C.
[10] = strain GC 4545, broth dilution, 18 hours at 35° C.
[11] = broth dilution, inoculum 5×10^5 CFU/mL, 18 hours at 35° C.

Cc1ccc(Oc2ccc(C3OCC4OC(OC5C(CO)OC(Oc6ccc(CC7NC(=O)C(C(C)c8ccccc8)NC(=O)CNC(=O)C(CO)NC(=O)C(C(O)C8CNC(=N)N8C8OC(CO)C(O)C(O)C8O)NC(=O)C(C(O)C8CNC(=N)N8)NC7=O)cc6)C(O)C5O)C(O)C(O)C4O3)cc2)cc1 (stereo not drawn) [Example 174, Cyclo[glycyl-β-methylphenylalanyl-O-[4-O-[4,6-O-[4-(4-methylphenoxy)benzylidene]hexopyranosyl]hexopyranosyl]tyrosyl-3-(2-iminoimidazolidin-4-yl)seryl-3-(3-hexopyranosyl-2-iminoimidazolidin-4-yl)serylseryl]]
4 µg/mL: MIC Escherichi coli (GC 4560) (Escherichia coli)
>64 µg/mL: MIC Escherichia coli (ATCC 25922) (Escherichia coli) | MIC Escherichia coli (GC 4559) (Escherichia coli)
0.5 µg/mL: MIC Coagulase Negative Staphylococcus (GC 4548) (Staphylococcus sp.; [2]) | MIC Coagulase Negative Staphylococcus (GC 6257) (Staphylococcus sp.; [2])
2 µg/mL: MIC Coagulase Negative Staphylococcus (GC 4547) (Staphylococcus sp.; [2]) | MIC Staphylococcus aureus (ATCC 29213) (Staphylococcus sp.; [2]) | MIC Staphylococcus aureus (GC 3051) (Staphylococcus sp.; [2]) | MIC Staphylococcus aureus (GC 3053) (Staphylococcus sp.; [2]) | MIC Staphylococcus aureus (GC 4541) (Staphylococcus sp.; [2]) | MIC Staphylococcus aureus (GC 4542) (Staphylococcus sp.; [2]) | MIC Staphylococcus haemolyticus (GC 4546) (Staphylococcus sp.; [2]) | MIC Staphylococcus aureus (ATCC 29213) (Staphylococcus sp.; [3]) | MIC Staphylococcus aureus (GC 3051) (Staphylococcus sp.; [5]) | MIC Staphylococcus aureus (GC 3053) (Staphylococcus sp.; [6]) | MIC Staphylococcus aureus (GC 4541) (Staphylococcus sp.; [7]) | MIC Staphylococcus aureus (GC 4542) (Staphylococcus sp.; [8]) | MIC Enterococcus avium (GC 4558) (Enterococcus sp.; [11]) | MIC Enterococcus faecalis (ATCC 29212) (Enterococcus sp.; [11]) | MIC Enterococcus faecalis (GC 2242) (Enterococcus sp.; [11]) | MIC Enterococcus faecalis (GC 2691) (Enterococcus sp.; [11]) | MIC Enterococcus faecalis (GC 3059) (Enterococcus sp.; [11]) | MIC Enterococcus faecalis (GC 6189) (Enterococcus sp.; [11]) | MIC Enterococcus faecium (GC 4557) (Enterococcus sp.; [11]) | MIC Enterococcus faecalis (ATCC 29212) (Enterococcus sp.; strain ATCC 29212) | MIC Enterococcus faecalis (GC 2242) (Enterococcus sp.; strain GC 2242) | MIC Enterococcus faecalis (GC 2691) (Enterococcus sp.; strain GC 2691) | MIC Enterococcus faecalis (GC 3059) (Enterococcus sp.; strain GC 3059) | MIC Enterococcus faecium (GC 4557) (Enterococcus sp.; strain GC 4557) | MIC Enterococcus avium (GC 4558) (Enterococcus sp.; strain GC 4558) | MIC Enterococcus faecalis (GC 6189) (Enterococcus sp.; strain GC 6189)
<0.06 µg/mL: MIC Streptococcus agalactiae (GC 4564) (Streptococcus sp.; [11]) | MIC Streptococcus pneumoniae (ATCC 6301) (Streptococcus sp.; [11]) | MIC Streptococcus pneumoniae (GC 1894) (Streptococcus sp.; [11]) | MIC Streptococcus pneumoniae (GC 4565) (Streptococcus sp.; [11]) | MIC Streptococcus pyogenes (GC 4563) (Streptococcus sp.; [11]) | MIC Streptococcus pneumoniae (ATCC 6301) (Streptococcus sp.; strain ATCC 6301) | MIC Streptococcus pneumoniae (GC 1894) (Streptococcus sp.; strain GC 1894) | MIC Streptococcus pyogenes (GC 4563) (Streptococcus sp.; strain GC 4563) | MIC Streptococcus agalactiae (GC 4564) (Streptococcus sp.; strain GC 4564) | MIC Streptococcus pneumoniae (GC 4565) (Streptococcus sp.; strain GC 4565)
0.08 mg/kg: median effective dose (ED50), Staphylococcus aureus-SMITH (GC 4543) [1]
1 µg/mL: MIC Coagulase Negative Staphylococcus (GC 4549) (Staphylococcus sp.; [2]) | MIC Coagulase Negative Staphylococcus (GC 4551) (Staphylococcus sp.; [2]) | MIC Staphylococcus aureus (GC 1131) (Staphylococcus sp.; [2]) | MIC Staphylococcus aureus (GC 4544) (Staphylococcus sp.; [2]) | MIC Staphylococcus aureus (GC 4545) (Staphylococcus sp.; [2]) | MIC Staphylococcus aureus-SMITH (GC 4543) (Staphylococcus sp.; [2]) | MIC Staphylococcus aureus (GC 1131) (Staphylococcus sp.; [4]) | MIC Staphylococcus aureus (GC 4544) (Staphylococcus sp.; [9]) | MIC Staphylococcus aureus (GC 4545) (Staphylococcus sp.; [10]) | MIC Enterococcus faecalis (GC 4552) (Enterococcus sp.; [11]) | MIC Enterococcus faecalis (GC 4553) (Enterococcus sp.; [11]) | MIC Enterococcus faecalis (GC 4554) (Enterococcus sp.; [11]) | MIC Enterococcus faecium (GC 2243) (Enterococcus sp.; [11]) | MIC Enterococcus faecium (GC 4556) (Enterococcus sp.; [11]) | MIC Enterococcus faecium (GC 2243) (Enterococcus sp.; strain GC 2243) | MIC Enterococcus faecalis (GC 4552) (Enterococcus sp.; strain GC 4552) | MIC Enterococcus faecalis (GC 4553) (Enterococcus sp.; strain GC 4553) | MIC Enterococcus faecalis (GC 4554) (Enterococcus sp.; strain GC 4554) | MIC Enterococcus faecium (GC 4556) (Enterococcus sp.; strain GC 4556)

COc1ccc(Oc2cccc(C3OCC4OC(OC5C(CO)OC(Oc6ccc(CC7NC(=O)C(C(C)c8ccccc8)NC(=O)CNC(=O)C(CO)NC(=O)C(C(O)C8CNC(=N)N8C8OC(CO)C(O)C(O)C8O)NC(=O)C(C(O)C8CNC(=N)N8)NC7=O)cc6)C(O)C5O)C(O)C(O)C4O3)c2)cc1 (centres unmarked) [Example 180]
>64 µg/mL: MIC Escherichia coli (ATCC 25922) (Escherichia coli)
4 µg/mL: MIC Enterococcus faecalis (ATCC 29212) (Enterococcus sp.; [11]) | MIC Enterococcus faecalis (GC 2242) (Enterococcus sp.; [11]) | MIC Enterococcus faecalis (ATCC 29212) (Enterococcus sp.; strain ATCC 29212) | MIC Enterococcus faecalis (GC 2242) (Enterococcus sp.; strain GC 2242)
2 µg/mL: MIC Staphylococcus aureus (ATCC 29213) (Staphylococcus sp.; [2]) | MIC Staphylococcus aureus (GC 1131) (Staphylococcus sp.; [2]) | MIC Staphylococcus aureus (GC 3053) (Staphylococcus sp.; [2]) | MIC Staphylococcus aureus (GC 4541) (Staphylococcus sp.; [2]) | MIC Staphylococcus aureus (GC 4542) (Staphylococcus sp.; [2]) | MIC Staphylococcus aureus (GC 4544) (Staphylococcus sp.; [2]) | MIC Staphylococcus aureus (GC 4545) (Staphylococcus sp.; [2]) | MIC Staphylococcus aureus (ATCC 29213) (Staphylococcus sp.; [3]) | MIC Staphylococcus aureus (GC 1131) (Staphylococcus sp.; [4]) | MIC Staphylococcus aureus (GC 3053) (Staphylococcus sp.; [6]) | MIC Staphylococcus aureus (GC 4541) (Staphylococcus sp.; [7]) | MIC Staphylococcus aureus (GC 4542) (Staphylococcus sp.; [8]) | MIC Staphylococcus aureus-SMITH (GC 4543) (Staphylococcus sp.; strain GC 4543) | MIC Staphylococcus aureus (GC 4544) (Staphylococcus sp.; [9]) | MIC Staphylococcus aureus (GC 4545) (Staphylococcus sp.; [10]) | MIC Staphylococcus haemolyticus (GC 4546) (Staphylococcus sp.; strain GC 4546) | MIC Coagulase Negative Staphylococcus (GC 4547) (Staphylococcus sp.; strain GC 4547) | MIC Escherichi coli (GC 4560) (Escherichia coli) | MIC Enterococcus avium (GC 4558) (Enterococcus sp.; [11]) | MIC Enterococcus faecalis (GC 2691) (Enterococcus sp.; [11]) | MIC Enterococcus faecalis (GC 3059) (Enterococcus sp.; [11]) | MIC Enterococcus faecalis (GC 4552) (Enterococcus sp.; [11]) | MIC Enterococcus faecalis (GC 4553) (Enterococcus sp.; [11]) | MIC Enterococcus faecalis (GC 4554) (Enterococcus sp.; [11]) | MIC Enterococcus faecalis (GC 6189) (Enterococcus sp.; [11]) | MIC Enterococcus faecium (GC 2243) (Enterococcus sp.; [11]) | MIC Enterococcus faecium (GC 4556) (Enterococcus sp.; [11]) | MIC Enterococcus faecium (GC 4557) (Enterococcus sp.; [11]) | MIC Enterococcus faecium (GC 2243) (Enterococcus sp.; strain GC 2243) | MIC Enterococcus faecalis (GC 2691) (Enterococcus sp.; strain GC 2691) | MIC Enterococcus faecalis (GC 3059) (Enterococcus sp.; strain GC 3059) | MIC Enterococcus faecalis (GC 4552) (Enterococcus sp.; strain GC 4552) | MIC Enterococcus faecalis (GC 4553) (Enterococcus sp.; strain GC 4553) | MIC Enterococcus faecalis (GC 4554) (Enterococcus sp.; strain GC 4554) | MIC Enterococcus faecium (GC 4556) (Enterococcus sp.; strain GC 4556) | MIC Enterococcus faecium (GC 4557) (Enterococcus sp.; strain GC 4557) | MIC Enterococcus avium (GC 4558) (Enterococcus sp.; strain GC 4558) | MIC Enterococcus faecalis (GC 6189) (Enterococcus sp.; strain GC 6189)
0.5 µg/mL: MIC Coagulase Negative Staphylococcus (GC 6257) (Staphylococcus sp.; strain GC 6257)
0.05 mg/kg: median effective dose (ED50), Staphylococcus aureus-SMITH (GC 4543) [1]
1 µg/mL: MIC Staphylococcus aureus (GC 3051) (Staphylococcus sp.; [2]) | MIC Staphylococcus aureus (GC 3051) (Staphylococcus sp.; [5]) | MIC Coagulase Negative Staphylococcus (GC 4548) (Staphylococcus sp.; strain GC 4548) | MIC Coagulase Negative Staphylococcus (GC 4549) (Staphylococcus sp.; strain GC 4549) | MIC Coagulase Negative Staphylococcus (GC 4551) (Staphylococcus sp.; strain GC 4551)
<0.06 µg/mL: MIC Streptococcus agalactiae (GC 4564) (Streptococcus sp.; [11]) | MIC Streptococcus pneumoniae (ATCC 6301) (Streptococcus sp.; [11]) | MIC Streptococcus pneumoniae (GC 1894) (Streptococcus sp.; [11]) | MIC Streptococcus pneumoniae (GC 4565) (Streptococcus sp.; [11]) | MIC Streptococcus pyogenes (GC 4563) (Streptococcus sp.; [11]) | MIC Streptococcus pneumoniae (ATCC 6301) (Streptococcus sp.; strain ATCC 6301) | MIC Streptococcus pneumoniae (GC 1894) (Streptococcus sp.; strain GC 1894) | MIC Streptococcus pyogenes (GC 4563) (Streptococcus sp.; strain GC 4563) | MIC Streptococcus agalactiae (GC 4564) (Streptococcus sp.; strain GC 4564) | MIC Streptococcus pneumoniae (GC 4565) (Streptococcus sp.; strain GC 4565)
64 µg/mL: MIC Escherichia coli (GC 4559) (Escherichia coli)
